The results in this text go back to article PMC8621570, “Mechanistic Studies of Antibiotic Adjuvants Reducing Kidney’s Bacterial Loads upon Systemic Monotherapy” (Pharmaceutics, 2021).

The nature of one data set: Maximum tolerated dose. The format is in vivo, mouse. To be noted: single-dose subcutaneous, uninfected ICR mice, three mice per dose, monitored 7 days. The protocol:
(§1) Animals: All animal studies were performed using male ICR mice (25 ± 2 gr). The Technion Animal Care and Use committee approved all procedures, care, and handling of animals. Ethics approval codes: IL0800519, IL0640421, IL0550618, IL1811217.
The maximum tolerated dose (MTD) was determined after a single-dose subcutaneous (S.C) administration of C14(ω5)OOc10O using three mice per dose. Animals were monitored for adverse effects for 7 days after injection.

In data set [1] the test system is E. coli 25922. The experiment in a line: Thigh infection model. The format is in vivo, mouse. The following applies: 12.5 mg/kg S.C at 1 and 3 h post-infection, CFU/thigh at 24 h, 8 mice per group. The protocol: as §1
For efficacy assessments, three infection models were used including one with topical treatment and two with systemic treatment. • Excisional skin wound infection model: mice were anesthetized by intraperitoneal administration of a mixture of ketamine 100 mg/kg and xylazine 5 mg/kg in PBS and their backs shaved with electric clippers. The following day mice were similarly anesthetized and were administrated (S.C) 0.05 mg/kg buprenorphine (for pain relief). A 5 mm diameter piece of skin was removed from the middle of the shaved back, with sterile biopsy punch resulting in a full-thickness injury. A total of 20 µL of a mid-logarithmic culture, containing 5 × 10^6 CFU P. aeruginosa 27853 were applied on the wound. […] The number of viable bacteria was determined after overnight incubation at 37 °C. […] The number of viable bacteria was determined after overnight incubation at 37 °C. […] The number of viable bacteria was determined after overnight incubation at 37 °C. […]

Data set [2] has as its system E. coli 25922. The experiment in a line: Dissipation of the transmembrane potential, DiSC3(5). The format is cell-based, Escherichia coli. The following applies: 10 μM, compared to positive control 50 µM C12K-7α8. Here is the method:
Inner Membrane Damages: Damage inflicted to the cytoplasmic membrane was assessed using 3,3-dipropylthiadicarbocyanine iodide (DiSC3(5)), a lipophilic potentiometric dye that changes its fluorescence intensity in response to changes in transmembrane potential. Bacteria were grown overnight, diluted and at mid-log were adjusted to O.D = 0.1 (600 nm), centrifuged (10,000 RCF, 5 min), and re-suspended in the assay buffer (5 mM HEPES containing 20 mM glucose, 0.2 mM EDTA, and 50 mM KCl). Then, DiSC3(5) dye was added (to final concentration 4 μM) and incubated at 37 °C for 60 min in the dark to allow dye uptake. An aliquot (180 μL) of the bacterial suspension was placed in a 96-well plate and fluorescence was monitored until baseline stabilization (excitation, 622 nm; emission, 670 nm, monitored using Synergy HT, BioTek Instruments, Winooski, VT, USA). […] Fluorescence was immediately monitored continuously for 30 min. […]
Figure 7 Evidence for proton and ATP leakage across the inner membrane. (a) Dissipation of the transmembrane potential in E. coli 25922 (8.8 ± 1.8 × 10^7 CFU/mL) pre-incubated with DiSC3(5) as determined 15 min after exposure to C14OOc12O (orange) or to C14(ω5)OOc10O (green). […] (b) Intracellular ATP concentrations were determined after 1 h incubation with C14(ω5)OOc10O (green) or C14OOc12O (orange) using E. coli 25922 at 5 × 10^7 CFU/mL. RLU, relative luminescence units.

For `CCCCC=CCCCCCCCC(=O)N[C@@H](CCCN)C(=O)N[C@@H](CCCN)C(=O)NCCCCCCCCCC(=O)N[C@@H](CCCN)C(N)=O` [C14(ω5)OOc10O], the “Maximal tolerated dose (MTD)” value in the data set “Maximum tolerated dose” is recorded as “higher than 40 mg/kg”. Further, the “Effect on thigh bacterial loads” value with E. coli 25922 [1] is “unable to reduce bacterial loads”. In addition, the “Depolarization (dissipation of the transmembrane potential)” value in the data set on E. coli 25922 [2] is “only partial depolarization”.
